{"source": "patent US20250114367A1", "about": "“METHOD OF TREATING HAIR LOSS DISORDERS” (Sun Pharmaceutical Industries, Inc., priority 2023, published 2025)", "origin": "cited, not measured here", "test_system": "subjects with AA", "conditions": "ritlecitinib 50 mg; up to 48 weeks; FIG. 13C; cited from earlier work"}
{"smiles": "C=CC(=O)N1C[C@H](Nc2ncnc3[nH]ccc23)CC[C@@H]1C", "note": "[ritlecitinib]", "values": [{"measurement": "proportion of participants achieving SALT ≤20", "value": "≤ 50", "unit": "%"}]}
